We go through one compound from patent publication US9289496B2, “Lipid dipeptide and gel” (Nissan Chemical Industries, Ltd., priority 2008, dated 2016).

The nature of data set [1]: Evaluation of gelation of free N-palmitoyl-Gly-His in propylene glycol (PG) solution. Format: physicochemical. Also noted: key: a sample that formed a gel is shown as “O”; a sample that partially formed a gel is shown as “A”; a sample that formed no gel is shown as “X”. The procedure:
Free N-palmitoyl-Gly-His prepared in Example 4 was placed into a screw tube (Maruemu No. 1, manufactured by Maruemu Corp.). Each of the propylene solutions having various concentrations shown in Table 6 was added into the screw tube so as to have a free N-palmitoyl-Gly-His concentration of 0.25%, 0.5%, or 1% (w/v). The mixture was heated at 100° C. with a constant temperature heat block (manufactured by Nippon Genetics Co., Ltd.), and then allowed to stand at room temperature.
In Table, a sample that formed a gel is shown as “O”, a sample that partially formed a gel is shown as “A”, and a sample that formed no gel is shown as “X”.

Data set [2] in a line: Preparation of film from sheet-shaped gel. Format: physicochemical. The following applies: 0.5% (w/v); 30%, 20% and 10% glycerin aqueous solutions; dissolved at 80° C. As for the experimental part: Into a screw tube (Maruemu No. 3, manufactured by Maruemu Corp.), 3 mg of N-palmitoyl-Gly-His.TFA salt prepared in Example 1 was placed. Into the screw tube, 0.6 ml of Japanese Pharmacopoeia purified water (Kyoei Pharmaceutical Industries, Ltd.) was added so as to have a concentration of 0.5% (w/v). The whole was heated at 105° C. for 5 minutes, and then allowed to stand at room temperature to prepare a gel of 0.5% N-palmitoyl-Gly-His.TFA salt.
Into the gel, 2 ml of Japanese Pharmacopoeia purified water (Kyoei Pharmaceutical Industries, Ltd.) was further added and sheet formation was observed from a wide view for 72 hours.
Using 10 mg of free N-palmitoyl-Gly-His, each 2.0 mL of 30%, 20%, and 10% glycerin aqueous solutions was added so as to become a 0.5% (w/v) solution, and the mixture solution was heated and dissolved at 80° C. The solution was placed in a glass petri dish having an inner diameter of 2.2 cm and allowed to cool at room temperature. […] Then, the obtained gel was transferred onto a glass substrate.

Residues, ends and D or L forms follow the SMILES beside them.

Regarding `CCCCCCCCCCCCCCCC(=O)NCC(=O)N[C@@H](Cc1c[nH]cn1)C(=O)O` [Example 4, N-Palmitoyl-Gly-His] (HELM PEPTIDE1{[CCCCCCCCCCCCCCCC(=O)[*:2]].G.H}$$$$V2.0), the Gelation result in data set [1] (0.25% (w/v), mass fraction PG/water + PG 0.1) was “Δ”; in data set [1] (0.25% (w/v), mass fraction PG/water + PG 0.2), “Δ”; in data set [1] (0.25% (w/v), mass fraction PG/water + PG 0.3), “Δ”; in data set [1] (0.25% (w/v), mass fraction PG/water + PG 0.5), “◯”; in data set [1] (0.25% (w/v), mass fraction PG/water + PG 0.7), “◯”; in data set [1] (0.25% (w/v), mass fraction PG/water + PG 1.0), “X”. The Gelation entry is recorded as “Δ” in data set [1] (0.5% (w/v), mass fraction PG/water + PG 0.1); “Δ” in data set [1] (0.5% (w/v), mass fraction PG/water + PG 0.2); “◯” in data set [1] (0.5% (w/v), mass fraction PG/water + PG 0.3); “◯” in data set [1] (0.5% (w/v), mass fraction PG/water + PG 0.5); “◯” in data set [1] (0.5% (w/v), mass fraction PG/water + PG 0.7); “X” in data set [1] (0.5% (w/v), mass fraction PG/water + PG 1.0). Besides, the Gelation result is listed as “◯” in data set [1] (1.0% (w/v), mass fraction PG/water + PG 0.1); “◯” in data set [1] (1.0% (w/v), mass fraction PG/water + PG 0.2); “◯” in data set [1] (1.0% (w/v), mass fraction PG/water + PG 0.3); “◯” in data set [1] (1.0% (w/v), mass fraction PG/water + PG 0.5); “◯” in data set [1] (1.0% (w/v), mass fraction PG/water + PG 0.7); “X” in data set [1] (1.0% (w/v), mass fraction PG/water + PG 1.0). Besides, in data set [2], the Gelation entry is recorded as “gelation was observed in each case”.
